In patent US20040259823A1, “Cationic amphiphiles as transfection vehicles” (priority 2001, published 2004):

What was measured:
Assay type in all cases: cell-based
[1] = tested on: COS-7 and HepG2 cells; assay: Transfection with pCMV GFP plasmid, % GFP positive cells by FACS (cell line not given); conditions: cell line and helper lipid not given
Protocol: (§1) Transfections were carried out following standard protocols as is described in EP 0755924. In numerous publications variations of transfection protocols are given. A person acquainted with the field of non-viral transfections, in particular transfections using cationic amphiphiles will be able to use the cationic amphiphiles of the invention in transfection methods known per se. In standard experiments COS-7 cells are transfected with plasmid DNA containing the β-galactosidase reporter gene. Upon successful transfection the cell produces the enzyme β-galactosidase whose activity can be easily measured. Other plasmids comprising alternative reporter genes such as the gene encoding Green Fluorescent Protein or Chloroamphenicol Acetyl Transferase are suited as well. For analyzing stable transfection a plasmid containing the neomycin resistance gene can be used. Toxicity of the cationic amphiphiles towards the cells can be monitored qualitatively and quantitatively by visual inspection of the cells and by a protein determination.
(§2) A solution of cationic amphiphile in a 50/50 molar ratio with DOPE, DOPC or cholesterol in chloroform was dried under a stream of nitrogen. The residual solvent was removed under vacuum. The lipid film was hydrated in water at room temperature and sonicated to clarity in a bath sonicator immediately before use.
(§3) A 4.7 kb pair plasmid containing the GFP reporter gene under control of the cytomegalovirus immediate early gene promoter/enhancer (pCMV GFP).DNA was isolated from E. coli using a Qiagen Plasmid Kit (QIAGEN Inc, USA). The plasmid concentration was determined by measuring the absoption at 260 nm using the relation 1.0 OD=50 μg/ml. The OD260/OD280 value was 1.95.
(§4) COS-7 and HepG2 cells were cultured in Dulbecco's Modified Eagle Medium (DMEM Gibco The Netherlands) containing 7% of fetal calf serum, 2 mM L-Glutamine, 100 units/ml of penicilin and […] of streptomycin at 37° C. in CO2/air (1:19).
(§5) Cells (1×10^5 cells/well) were seeded in 12-well plates and were allowed to grow overnight.
(§6) The complex of cationic amphiphile/helper lipid (1:1) with pCMV GFP was prepared at the charge ratio 2.5:1 (15 nmol lipid and 1 μg DNA), in 100 μl 10 mM HEPES (pH=7.4, 150 mM NaCl). After 10-15 min incubation at room temperature, the resulting complex was diluted in 1 ml medium (DMEM) and 0.5 ml of the mixture was added to the cells and incubated for 4 h at 37° C. The transfection efficiency expressed as a percentage of GFP positive cells was measured by FACS (Fluorescence Activated Cell Soorting) 48 hours after the transfection.
(§7) Control wells underwent identical steps except that no cationic amphiphile was added.

[2] = tested on: COS-7 and HepG2 cells; assay: Cell survival after transfection (cell line not given); conditions: cell line and helper lipid not given; for % surv / % surv mean: Table 11
Protocol: as §1, §4, §5, §6, §7

[3] = tested on: HepG2; assay: Transfection with pCMV GFP plasmid, % GFP positive cells by FACS (Table 3); conditions: HepG2, DOPE
Protocol: as §1, §2, §3, §4, §5, §6, §7

[4] = tested on: HepG2; assay: Cell survival after transfection (Table 3); conditions: HepG2, DOPE; note: tested at 6.8 µM
Protocol: as §1, §4, §5, §6, §7
Throughout, for % surv mean: tested at 6.8 µM.

SMILES	% TE ([1]; Table 1) [%]	% TE ([1]; Table 2) [%]	% TE ([1]; Table 7) [%]	% TE ([1]; Table 8) [%]	% TE ([1]; Table 9) [%]	% TE ([1]; Table 10) [%]	% surv cells ([2]; Table 1) [%]	% surv cells ([2]; Table 2) [%]	% surv cells ([2]; Table 7) [%]	% surv cells ([2]; Table 8) [%]	% surv cells ([2]; Table 9) [%]	% surv cells ([2]; Table 10) [%]	other results
CCCCCCCC/C=C\CCCCCCCCC(CCCCCCCC/C=C\CCCCCCCC)c1cc[n+](C)cc1.[Cl-] [S2, reference compound]	25.17	16.27	51.9	12.91	7.55	1.78	62.6	43.38	82.51	60.78	65.19	21.81	% TE ([1]; Table 11, first value): 41.2%; % TE mean ([1]; Table 11): 42.8%; % TE ([1]; Table 11, second value): 44.4%; % surv ([2]; first value): 87.64%; % surv mean [2]: 87.24%; % surv ([2]; second value): 86.84%
CCCCCCCC/C=C\CCCCCCCC[n+]1ccc(CCCCCCCCCCCCCCCCCCC)cc1.[Cl-] [SF14, 1-(9′-cis-octadecenyl)4nonadecyl-pyridinium Chloride]													% TE ([1]; Table 4): 7.72%; % TE ([1]; Table 5): 2.79%; % TE ([1]; Table 6): 1.6%; % TE ([1]; Table 11, first value): 2.41%; % TE mean ([1]; Table 11): 3.1%; % TE ([1]; Table 11, second value): 3.78%; % surv cells ([2]; Table 4): 78.64%; % surv cells ([2]; Table 5): 87.81%; % surv cells ([2]; Table 6): 93.14%; % surv ([2]; first value): 88.63%; % surv mean [2]: 87.805%; % surv ([2]; second value): 86.98%
CCCCCCCC/C=C\CCCCCCCC[n+]1ccc(CCCCCCCCCCCCC)cc1.[Cl-] [SF30, 1-(9′-cis-octadecenyl)-4-tridecyl-pyridinium Chloride]	9.73	16.61	13.61	3.09	13.61	5.32	78.45	46.45	84.28	75.35	84.28	60.16	
CCCCCCCCCCCCCc1cc[n+](CCCCCCCC)cc1.[Cl-] [SF32, 1-octyl-4-tridecyl-pyridinium Chloride]	0.83	6.99	1.56	4.44	5.19	2.19	71.07	44.08	81.56	72.1	56.32	78.75	
CCCCCCCCCCCCCc1cc[n+](CCCCCCCCCC)cc1.[Cl-] [SF33, 1-decyl-4-tridecyl-pyridinium Chloride]	3.07	9.71	0.05	3.82	3.85	5.77	78.47	39.82	87.79	75.05	68.99	69.94	
CCCCCCCCCCCCCc1cc[n+](CCCCCCCCCCCC)cc1.[Cl-] [SF34, 1-dodecyl-4-tridecyl-pyridinium Chloride]	13.51	7.13	4.3	4.77	4.3	6.26	56.91	40.88	84.47	50.43	68.01	67.89	
CCCCCCCCCCCCCC[n+]1ccc(CCCCCCCCCCCCC)cc1.[Cl-] [SF35, 1-tetradecyl-4-tridecyl-pyridinium Chloride]	18.92	10.48	6.4	3.23	3.32	3.23	65.49	42.35	82.58	72.37	68.67	70.39	
CCCCCCCCCCCCCCCC[n+]1ccc(CCCCCCCCCCCCC)cc1.[Cl-] [SF36, 1-hexadecyl-4-tridecyl-pyridinium Chloride]	1.39	15.06	25.36	4.46	2.73	1.75	76.77	36.8	84.28	64.88	63.36	37.75	
CCCCCCCCCCCCCCCCCC[n+]1ccc(CCCCCCCCCCCCC)cc1.[Cl-] [SF37, 1-stearyl-4-tridecyl-pyridinium Chloride]	4.4	18.39	8.5	5.02	2.95	2.74	70.04	41.67	75.65	70.7	64.58	63.85	
CCCCCCCC/C=C\CCCCCCCC[n+]1ccc(C)cc1.[Cl-] [SF38, 1-(9′-cis-octadecenyl)-4-methyl-pyridinium Chloride]													% TE ([3]; first value): 0.82%; % TE mean ([3]; mean): 0.555%; % TE ([3]; second value): 0.29%; % surv cells ([4]; first value): 23.6%; % surv cells Mean ([4]; mean): 22.05%; % surv cells ([4]; second value): 20.5%; % TE ([1]; Table 4): 5.43%; % TE ([1]; Table 6): 0.47%; % surv cells ([2]; Table 4): 63.19%; % surv cells ([2]; Table 6): 94.13%
